Each structure is given as a SMILES string.

The test system of this experiment is THP-1 viability, CellTiter-Glo luminescence, 72 h. Briefly: PubChem AID 2252.
Broadly, the EC50 is the concentration needed to bring the measured effect to its halfway point. Take `O=C(N/N=C/c1ccc([N+](=O)[O-])s1)C(O)c1ccccc1` (centres undefined): the EC50 was 12.9 µM.

On to `CC(NCc1ccccc1O)C12CC3CC(CC(C3)C1)C2` (centres undefined), for which the concentration for a half-maximal effect (EC50) is 41.6 µM.

Regarding `O=C(CSc1nc2ccccc2s1)N/N=C/c1cc([N+](=O)[O-])ccc1O`, the EC50 is 27.5 µM.

As for `COc1ccc2nc(N(CCN(C)C)C(=O)/C=C/c3cccs3)sc2c1`, the EC50 is 16.1 µM.

For `c1ccc(CNc2nc(N3CCN(Cc4ccccc4)CC3)nc3ccccc23)cc1`, the EC50 is 8.41 µM.

For the compound `CN1CCN(c2nc(Nc3ccc(F)cc3)nc(Nc3ccc(F)cc3)n2)CC1`, the EC50 was 12.1 µM.

For the compound `O=C(C[n+]1cc(-c2ccccc2)n2c1CCC2)Nc1nc(-c2ccc(F)cc2)cs1`, the concentration for a half-maximal effect (EC50) is 32.4 µM.

As for `OCCCCNCc1ccc(OCc2ccccc2Cl)cc1`, the half-maximal effective concentration (EC50) is 34.6 µM.

Take `CSc1ccc2c(c1)N(CCC1CCCCN1C)c1ccccc1S2` (centres undefined): the EC50 is 13 µM.

As for `c1cncc(CSc2ccc(-c3cccs3)nn2)c1`, the EC50 was 35.2 µM.

On to `NC1=NC[C@H](Cc2ccc(O)cc2)N1CCC12CC3CC(CC(C3)C1)C2`, for which the EC50 is 13.2 µM.

For the compound `O=C(Nc1ccc([N+](=O)[O-])cc1Cl)c1cc(Cl)ccc1O`, the EC50 was 1.93 µM.

Turning to `O=C(CNC(=O)c1ccccc1)N/N=C/c1ccc([N+](=O)[O-])s1`, the EC50 is 16.9 µM.

In the case of `Cc1cc(=O)oc2ccc(OCC(=O)N3CCC(C)CC3)cc12`, the EC50 is under 0.1 µM.

Regarding `O=C(Nc1nnc(-c2cccs2)o1)c1cccc(F)c1`, the EC50 was 16.9 µM.

With `Cc1cccc2c1Sc1ccc(Cl)cc1CC2N1CCNCC1` (centres undefined), the EC50 is 6.59 µM.

As to `OC(CNCCc1ccc(C(F)(F)F)cc1)COC(c1ccccc1)c1ccccc1` (centres undefined), the EC50 was 15.9 µM.

Consider `Cc1nn(-c2nc3ccccc3[nH]2)c(N)c1-c1ccccc1`, for which the EC50 was 28.7 µM.

For the compound `CNC[C@@H](Cc1ccccc1)NC[C@@H](CC1CCCCC1)NCCCc1ccccc1`, the EC50 is 3.56 µM.

On to `CCN1/C(=C/C(C)=C/c2sc3ccccc3[n+]2CC)Sc2ccccc21`, for which the half-maximal effective concentration (EC50) was 0.72 µM.

For the compound `c1ccc(CN2CCC(Nc3nc(-c4ccccc4)nc4ccccc34)CC2)cc1`, the EC50 was 17.6 µM.

Take `O=C(Cc1ccccc1)NNC(=S)NC(=O)c1cccs1`: the EC50 was 17.5 µM.

For the compound `O=C1C(SCCO)=C(SCCO)C(=O)c2ccccc21`, the EC50 is 3.62 µM.

As to `Cc1ccc(NC(=O)CS(=O)CC(=O)Nc2ccccc2-c2ccc(C)o2)cc1` (centres undefined), the concentration for a half-maximal effect (EC50) is 21.6 µM.

With `CCCCCCCCCCCCCCCCn1cc[n+](C)c1`, the EC50 is 0.74 µM.

Take `Cc1ccc(-c2cc(N)nc(-c3ccccc3)c2)cc1`: the EC50 is 28.6 µM.

As to `C#CCOCCOCCOCCNc1nc(N2CCN(C(=O)CCCCCCCCCCNC(=O)[C@@H](CCSC)n3cc(CCO)nn3)CC2)nc(N2CCN(C(=O)CCCCCCCCCCNC(=O)[C@H]([C@@H](C)CC)n3cc(CCCCN=C(N)N)nn3)CC2)n1`, the EC50 was 9.78 µM.

Regarding `CCOC(=O)c1c(CSC(=N)N)n(C)c2cc(Br)c(OC(C)=O)cc12`, the EC50 is 16.9 µM.

In the case of `Oc1ccc(CN2CCN(c3ccccc3)CC2)c2cccnc12`, the EC50 was 5.88 µM.

`CCN(CC)CCCCCCCCOC(=O)c1cc(OC)c(OC)c(OC)c1`: the 50% effective concentration (EC50) was 47.9 µM.

As for `Cc1ccc(C(=O)N/N=C\c2ccc([N+](=O)[O-])s2)cn1`, the EC50 is 13.2 µM.

In the case of `CCCCn1c(NS(=O)(=O)c2ccccc2)c(C(=O)OCC)c2nc3ccccc3nc21`, the EC50 was 20.1 µM.

As for `Brc1ccc2c(c1)CN1CCCC1=N2`, the concentration for a half-maximal effect (EC50) was 28.6 µM.

Turning to `Cc1ccc(OCC(=O)N/N=C\c2c(C)[nH]n(-c3ccccc3)c2=O)c([N+](=O)[O-])c1`, the 50% effective concentration (EC50) is 6.86 µM.

As to `O=C(CCc1ccccc1)NNC(=S)NC(=O)c1ccccc1`, the concentration giving a half-maximal response (EC50) is 10.9 µM.

In the case of `C[n+]1c2n(c3ccccc31)N=C(c1ccc(-c3ccccc3)cc1)CS2`, the half-maximal effective concentration (EC50) is 3.89 µM.

For `Oc1ccccc1C(Nc1nccs1)c1ccc2cccnc2c1O` (centres undefined), the 50% effective concentration (EC50) is 2.11 µM.

In the case of `CC(C)[C@@H](C(=O)NC1CCCC1)N1C(=O)N2CCc3c([nH]c4ccccc34)[C@@]2(C)C1=O`, the EC50 is 45.5 µM.

For the compound `COc1ccc(C(=O)NC(=S)NNC(=O)c2cnccn2)cc1OC`, the EC50 is 6.82 µM.

`COc1ccc(OCC(=O)Nc2ccc3c(c2)nc(CCN2CCC(C)CC2)n3C)cc1`: the EC50 was 35.1 µM.

Turning to `COc1ccc(C(=O)NNC(=S)NC(=O)c2ccccc2)cc1`, the EC50 was 6.81 µM.

`C#CCOCCOCCOCCNc1nc(N2CCN(C(=O)CCCCCCCCCCNC(=O)[C@@H](CCSC)n3cc(CCO)nn3)CC2)nc(N2CCN(C(=O)CCCCCCCCCCNC(=O)[C@H]([C@@H](C)CC)n3cc(CCCCCN)nn3)CC2)n1`: the EC50 was 12.9 µM.

Regarding `O=C(N/N=C/c1ccc(O)cc1O)C(=O)N/N=C/c1ccc(O)cc1O`, the EC50 was 12 µM.

For `Oc1c(Cl)cc(CN2CCCCC2)c2cccnc12`, the EC50 is 0.71 µM.

For the compound `OCCCCNCc1ccc(OCc2ccc(Cl)cc2Cl)cc1`, the EC50 was 9.8 µM.

Take `O=C(N/N=C\c1c[nH]c2ccccc12)c1ccc(O)cc1`: the EC50 is under 0.1 µM.

`Cc1ccc(-c2csc(NC(=O)C[n+]3cc(-c4ccc(C)cc4)n4c3CCC4)n2)cc1`: the EC50 is 8.33 µM.

With `CCN1CCCC1CNC(=O)C1CCN(Cc2nc(-c3cccc(Br)c3)oc2C)CC1` (centres undefined), the EC50 is 12.4 µM.

On to `Oc1c(CN2CCN(c3ccccn3)CC2)cc(Cl)c2cccnc12`, for which the EC50 was 1.64 µM.

`Cc1cccc(Nc2nc(NCc3ccco3)c3ccccc3n2)c1`: the EC50 is 4.43 µM.

`CCN(CC)CCn1c(NCc2cc(OC)ccc2OC)nc2ccccc21`: the EC50 is 42.7 µM.

In the case of `O=C(Nc1csc(Cl)c1)c1ccccc1`, the EC50 is under 0.1 µM.

For `Cc1cc(C(C)(C)CC(C)(C)C)ccc1OCCOCC[N+](C)(C)Cc1ccccc1`, the 50% effective concentration (EC50) is 1.18 µM.

On to `CN(C)CCNc1oc(COc2ccc(-c3ccccc3)cc2)nc1C#N`, for which the EC50 was 13.1 µM.

As to `CCCCCCCCNC(C)C(O)c1ccc(SC(C)C)cc1` (centres undefined), the EC50 was 3.57 µM.

Turning to `Cc1ccc(C(C[N+](=O)[O-])c2c(N)n(C)c(=O)n(C)c2=O)cc1` (centres undefined), the concentration for a half-maximal effect (EC50) is 26.3 µM.

Regarding `CN(C)c1ccc(Nc2nc(N)c3ccccc3n2)cc1`, the EC50 is 6 µM.

`Cc1ccc2c(c1)N/C(=C(\C=C(/Cl)[N+](=O)[O-])[N+](=O)[O-])N2`: the EC50 is 26.8 µM.

Turning to `Cc1nc(N)nc(N)c1CCCc1ccc(Cl)c(Cl)c1`, the EC50 is 5.79 µM.

As for `O=[N+]([O-])c1ccc(O)c2ncccc12`, the EC50 is 5.99 µM.

Turning to `Fc1cccc(NC(=S)NCc2ccc(Cl)cc2)c1`, the EC50 is 46.7 µM.

For `O=C(CN1C2=NCCCN2c2ccccc21)c1ccc(Br)s1`, the EC50 was 41.9 µM.

For `CN1CC(C(=O)c2ccc(Cl)cc2)C(c2ccc(Cl)cc2Cl)C1` (centres undefined), the EC50 was 27.5 µM.

For the compound `Nc1nc(Nc2ccc(Cl)cc2)nc2ccccc12`, the EC50 is 6.06 µM.

Regarding `O=C(/C=C/c1cc(Br)ccc1O)c1ccco1`, the EC50 is 8.79 µM.

As to `O=C(CC(=O)c1cc(Cl)ccc1O)c1ccccc1`, the concentration giving a half-maximal response (EC50) is 12.3 µM.

On to `CN1CCN(C(c2ccc(C(F)(F)F)cc2)c2ccc3cccnc3c2O)CC1` (centres undefined), for which the EC50 was 1.36 µM.

Consider `CCCCNC(=S)Nc1ccc([N+](=O)[O-])cc1`, for which the EC50 was 28.8 µM.

Turning to `CCC(=O)c1ccc(OCC(O)CNCCc2ccc(Cl)cc2)cc1` (centres undefined), the EC50 was 28.9 µM.

Consider `COc1ccc(/C=C/C(=O)NC(=S)NNC(=O)c2cnccn2)cc1`, for which the EC50 was 2.81 µM.

As to `Cc1ccccc1S(=O)(=O)NNC(=O)C(=O)NNc1ccccn1`, the EC50 was 24.2 µM.

In the case of `CC(=O)NC(c1ccc(Cl)cc1Cl)c1ccc2cccnc2c1O` (centres undefined), the EC50 is 7.25 µM.

Consider `N=c1n(CCN2CCCCC2)c2ccccc2n1CC(=O)c1ccc(Cl)c(Cl)c1`, for which the EC50 was 20.4 µM.

As to `Cc1ccc(-c2cc(-c3ccc(C)cc3)[n+](-c3ccccc3)c(-c3ccc(C)cc3)c2)cc1`, the EC50 was 0.49 µM.

As for `Cc1nn(-c2ccccc2)c(C)c1/C=N/n1c(-c2ccc(C(C)(C)C)cc2)n[nH]c1=S`, the EC50 is 32.1 µM.

`Cc1ccc(C(C[N+](=O)[O-])Sc2ccc(N)cc2)cc1` (centres undefined): the EC50 was 21.8 µM.

Turning to `Clc1ccc(Nc2ccc(NCc3ccccc3)nn2)cc1`, the EC50 is 22.4 µM.

Regarding `COc1ccc(NS(=O)(=O)c2cc(NC(=O)c3ccc(C)s3)ccc2N2CCOCC2)cc1`, the EC50 was 21.6 µM.

`CC1CCN(CCCNC(=O)c2ccc3c(=O)n(Cc4ccc(Cl)cc4)c(=S)[nH]c3c2)CC1`: the EC50 was 16.8 µM.

Take `O=C(NC(=S)NNC(=O)c1ccco1)c1ccc(Br)cc1`: the EC50 is 19.7 µM.

For `N=c1n(CCN2CCCCC2)c2ccccc2n1CC(O)COc1ccccc1` (centres undefined), the EC50 was 28.7 µM.

`CCCCCc1ccc(OCCC[n+]2ccccc2)c(CCCCC)c1`: the EC50 was 1.59 µM.

In the case of `CN1CCC(=C2c3ccccc3C=Cc3ccccc32)CC1`, the EC50 is 41.3 µM.

For `Cn1c(=O)c2c(nc(Br)n2CCSc2nc3ccccc3o2)n(C)c1=O`, the EC50 was under 0.1 µM.

As to `O=C(CN1CC[n+]2c(-c3cccs3)csc21)c1ccc(-c2ccccc2)cc1`, the EC50 was 13 µM.

As to `Cc1ccc(Nc2c3c(nc4ccccc24)CCC3)cc1`, the EC50 is 9.1 µM.

`Cc1ccc(-c2c[n+](CC(=O)Nc3nc(-c4ccccc4)cs3)c3n2CCC3)cc1`: the EC50 was 13.5 µM.

Turning to `CCOc1ccc(N2C(=O)CN(O)C=C3N=c4ccccc4=C32)cc1`, the 50% effective concentration (EC50) was 39.3 µM.

Take `O=C(Nc1nnc(C(F)(F)F)s1)c1ccc(Br)s1`: the EC50 is 22.2 µM.

As to `CCOC(=O)CNC(=O)Cn1c(C)cc2ccccc2c1=O`, the EC50 is 40.9 µM.

Take `CCCCn1c(=N)n(CC(=O)c2ccc(Br)s2)c2ccccc21`: the EC50 is 5.43 µM.

On to `O=C(Nc1ccc(Cl)cc1)N1CCCN(Cc2ccccc2F)C1`, for which the EC50 was 45.8 µM.

`Cc1[nH]cnc1C(=O)N/N=C/c1ccc([N+](=O)[O-])s1`: the EC50 was 13.3 µM.

For `CCOC(=O)Cn1c(=N)n(CCOc2ccc3ccccc3c2)c2ccccc21`, the EC50 was 17.7 µM.

In the case of `COCCCNC(=S)NNC(=O)c1ccccn1`, the EC50 was 38 µM.

For the compound `COc1ccc(Nc2c3ccccc3nc3ccccc23)cc1`, the EC50 was 8.99 µM.

Regarding `Oc1ccc(C[C@H]2CNCCN2CCCCC2CCCCC2)cc1`, the EC50 was 8.99 µM.

Consider `O=[N+]([O-])c1cc(CN2CCN(c3cccc(C(F)(F)F)c3)CC2)c2cccnc2c1O`, for which the EC50 was 1.74 µM.

On to `N=c1c2c(-c3ccccc3)c(-c3ccccc3)n(Cc3ccco3)c2ncn1CCCn1ccnc1`, for which the EC50 is 7.71 µM.

The record behind these values is PubChem BioAssay AID2252 (Southern Research Specialized Biocontainment Screening …, 2010).
